This note sets out measurements from PMC4869175, “Evidence that phytochrome functions as a protein kinase in plant light signalling” (Nature Communications, 2016).

Holding throughout (assay): Binding parameters of ATP by Scatchard plot using BODIPY-FL-ATP
The target of one test is T1, D422R AsphyA mutant (Avena sativa, UniProt P06593, D422R).
T1 construct: After preparing purified full-length AsphyA mutants; made in house; host or cells: Pichia pastoris GS115
The conditions noted are these: Scatchard plot with BODIPY-FL-ATP; result in words. How it is done: (§1) To estimate dissociation constant (Kd) and the number of binding sites (n) of ATP in AsphyA proteins, an ATP analogue BODIPY-FL-ATP (BODIPY FL 2′-(or-3′)-O-(N-(2-aminoethyl)urethane) adenosine triphosphate; Molecular Probes) was used. 0.5 μM AsphyA proteins were incubated with increasing concentration of BODIPY-FL-ATP (0.5–5 μM) for 10 min at 30 °C, and free (unbound) ATP analogue was separated from the ATP analogue-protein complex by using Amicon Ultra Centrifugal Filter with MWCO of 10,000 Da for 5 min at 4,000g. The spectrophotometric absorbance was then measured to determine the BODIPY-FL-ATP concentrations within flow-through and the complex solutions by using Shimadzu UV-1800 spectrophotometer. […] The concentrations of BODIPY-FL-ATP were also double-checked by measuring the emission intensity of BODIPY fluorophore at the excitation wavelength of 500 nm and emission wavelength of 515 nm. The fluorescence of free BODIPY-FL-ATP in the absence of any protein component was used as a linear standard curve. The Kd and n values were then calculated by a Scatchard plot of r/[BODIPY-FL-ATP]free versus r, where r is the molar ratio of [BODIPY-FL-ATP]bound to [AsphyA]total.
(§2) Supplementary Figure 12. Determination of binding parameters of ATP in AsphyA proteins. The number of binding sites (n) and dissociation constant (Kd) of ATP in AsphyA proteins were determined by Scatchard plots using an ATP analogue, BODIPY-FL-ATP (BODIPY® FL 2′-(or-3′)-O-(N-(2-aminoethyl)urethane) adenosine triphosphate). The n and Kd values were calculated from the slopes (-1/Kd) and x-axis intercepts (n) of the Scatchard plot of r/[BODIPY-FL-ATP]free versus r, where r was the molar ratio of [BODIPY-FL-ATP]bound to [AsphyA]total. The n values of full-length (FL) AsphyA and photosensory core (66-610) were both calculated at around one per polypeptide, and the Kd values were calculated at approximately 0.87 × 10^-6 M for FL-AsphyA, 0.72 × 10^-6 M for […]
(§3) level, possibly due to too low ATP binding.
(§4) (1 picture or pasted object on this page, not shown here)

For the next test, the target named is T2, K411L AsphyA mutant (Avena sativa, UniProt P06593, K411L).
T2 construct: After preparing purified full-length AsphyA mutants; made in house; host or cells: Pichia pastoris GS115
How it is done: as §1, §2, §3, §4

The target of the next test is T3, T418D AsphyA mutant (Avena sativa, UniProt P06593, T418D).
T3 construct: After preparing purified full-length AsphyA mutants; made in house; host or cells: Pichia pastoris GS115
The protocol:
as §1, §2, §3, §4

For the next test, the target named is T4, full-length AsphyA (Avena sativa, UniProt P06593).
T4 construct: Full-length phytochrome genes of AsPHYA; made in house; host or cells: Pichia pastoris GS115
T4 sequence (P06593 1-1129): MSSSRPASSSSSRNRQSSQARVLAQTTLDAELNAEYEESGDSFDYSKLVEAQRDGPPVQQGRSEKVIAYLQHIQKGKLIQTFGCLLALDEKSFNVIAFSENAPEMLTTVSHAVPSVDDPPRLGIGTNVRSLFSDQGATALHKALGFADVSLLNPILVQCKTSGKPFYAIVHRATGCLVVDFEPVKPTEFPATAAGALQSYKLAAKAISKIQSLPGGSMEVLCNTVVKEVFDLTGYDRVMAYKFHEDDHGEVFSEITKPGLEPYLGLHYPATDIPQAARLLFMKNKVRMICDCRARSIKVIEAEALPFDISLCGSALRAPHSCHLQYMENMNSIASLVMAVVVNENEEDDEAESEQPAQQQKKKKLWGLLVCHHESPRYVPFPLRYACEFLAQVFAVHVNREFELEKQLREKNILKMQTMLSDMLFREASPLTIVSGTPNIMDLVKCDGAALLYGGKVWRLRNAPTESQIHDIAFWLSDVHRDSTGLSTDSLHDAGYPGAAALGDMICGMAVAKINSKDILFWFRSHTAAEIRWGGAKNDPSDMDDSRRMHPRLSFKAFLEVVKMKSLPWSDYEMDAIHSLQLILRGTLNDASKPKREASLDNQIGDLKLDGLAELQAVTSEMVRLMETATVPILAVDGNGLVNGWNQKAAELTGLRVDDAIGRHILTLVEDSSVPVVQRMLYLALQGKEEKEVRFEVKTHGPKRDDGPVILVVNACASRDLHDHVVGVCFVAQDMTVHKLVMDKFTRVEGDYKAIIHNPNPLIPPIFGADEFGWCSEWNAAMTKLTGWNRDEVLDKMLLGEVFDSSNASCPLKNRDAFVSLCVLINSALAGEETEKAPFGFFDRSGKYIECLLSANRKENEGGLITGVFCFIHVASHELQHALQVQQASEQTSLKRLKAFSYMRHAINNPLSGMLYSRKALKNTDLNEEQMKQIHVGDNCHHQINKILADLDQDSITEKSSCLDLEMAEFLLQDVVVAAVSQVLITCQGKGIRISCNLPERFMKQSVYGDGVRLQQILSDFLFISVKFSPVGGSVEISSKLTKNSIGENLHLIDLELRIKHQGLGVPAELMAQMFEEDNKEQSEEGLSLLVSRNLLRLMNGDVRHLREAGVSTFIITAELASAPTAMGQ
The settings on record: as restated in Discussion; Scatchard plot with BODIPY-FL-ATP; read-out: Kd value (ATP-binding site). The protocol: as §1, §2, §3, §4

Test [1] has as its target T5, photosensory core of AsphyA (66-610) (Avena sativa, UniProt P06593).
T5 construct: the PAS-GAF-PHY photosensory core (66–610aa) were also cloned into pPIC3.5K; made in house; host or cells: Pichia pastoris GS115
T5 sequence (P06593 66-610): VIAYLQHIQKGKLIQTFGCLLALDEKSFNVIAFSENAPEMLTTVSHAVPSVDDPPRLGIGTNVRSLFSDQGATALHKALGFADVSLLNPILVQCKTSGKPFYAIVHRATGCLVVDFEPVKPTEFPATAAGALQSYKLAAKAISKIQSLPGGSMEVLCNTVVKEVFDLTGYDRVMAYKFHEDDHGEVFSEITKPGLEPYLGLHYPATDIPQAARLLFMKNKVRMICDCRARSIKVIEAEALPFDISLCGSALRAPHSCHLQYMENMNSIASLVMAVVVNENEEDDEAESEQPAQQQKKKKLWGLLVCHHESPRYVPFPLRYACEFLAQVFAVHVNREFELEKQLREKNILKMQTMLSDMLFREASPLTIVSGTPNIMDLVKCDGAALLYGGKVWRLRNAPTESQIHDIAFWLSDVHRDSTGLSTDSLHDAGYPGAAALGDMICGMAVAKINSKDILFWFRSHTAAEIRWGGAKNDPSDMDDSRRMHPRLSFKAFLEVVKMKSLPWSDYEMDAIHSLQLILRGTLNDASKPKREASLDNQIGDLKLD
The settings on record: as restated in Discussion; Scatchard plot with BODIPY-FL-ATP; read-out: Kd value (ATP-binding site). How it is done:
as §1, §2, §3, §4

T3 sequence (P06593 whole entry T418D): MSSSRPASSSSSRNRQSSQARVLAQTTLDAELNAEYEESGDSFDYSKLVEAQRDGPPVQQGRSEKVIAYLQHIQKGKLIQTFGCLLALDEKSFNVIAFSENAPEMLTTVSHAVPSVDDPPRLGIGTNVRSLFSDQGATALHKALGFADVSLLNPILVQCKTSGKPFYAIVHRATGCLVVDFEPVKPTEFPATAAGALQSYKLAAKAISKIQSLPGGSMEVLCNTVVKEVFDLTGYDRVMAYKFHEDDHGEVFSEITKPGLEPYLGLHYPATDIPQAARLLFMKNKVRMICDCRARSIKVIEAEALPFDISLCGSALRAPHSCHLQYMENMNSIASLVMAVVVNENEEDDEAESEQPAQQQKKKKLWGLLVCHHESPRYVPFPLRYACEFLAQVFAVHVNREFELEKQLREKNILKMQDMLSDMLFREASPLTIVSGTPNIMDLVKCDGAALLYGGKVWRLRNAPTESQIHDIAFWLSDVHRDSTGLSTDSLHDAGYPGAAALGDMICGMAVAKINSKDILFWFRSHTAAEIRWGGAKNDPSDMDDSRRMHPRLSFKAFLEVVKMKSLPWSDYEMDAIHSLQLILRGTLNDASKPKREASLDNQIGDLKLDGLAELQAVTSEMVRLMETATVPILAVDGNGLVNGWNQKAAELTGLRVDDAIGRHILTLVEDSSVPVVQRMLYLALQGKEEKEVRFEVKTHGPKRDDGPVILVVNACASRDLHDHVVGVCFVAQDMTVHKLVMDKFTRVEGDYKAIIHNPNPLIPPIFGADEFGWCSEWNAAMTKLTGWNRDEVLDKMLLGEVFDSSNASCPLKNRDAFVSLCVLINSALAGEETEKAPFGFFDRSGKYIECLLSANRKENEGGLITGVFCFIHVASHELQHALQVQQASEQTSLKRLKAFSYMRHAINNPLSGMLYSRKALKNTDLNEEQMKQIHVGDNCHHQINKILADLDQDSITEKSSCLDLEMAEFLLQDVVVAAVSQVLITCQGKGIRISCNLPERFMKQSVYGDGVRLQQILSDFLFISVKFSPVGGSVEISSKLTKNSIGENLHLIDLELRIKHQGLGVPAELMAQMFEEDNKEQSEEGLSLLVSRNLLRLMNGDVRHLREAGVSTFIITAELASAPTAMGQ
T2 sequence (P06593 whole entry K411L): as the sequence (P06593 whole entry T418D) above, with K411L, D418T counted along it
T1 sequence (P06593 whole entry D422R): as the sequence (P06593 whole entry T418D) above, with D418T, D422R counted along it

For `Nc1ncnc2c1ncn2[C@@H]1O[C@H](COP(=O)(O)OP(=O)(O)OP(=O)(O)O)[C@@H](O)[C@H]1O` [ATP], at D422R AsphyA mutant, the “dissociation constant (Kd) of ATP” value was “could not obtain the Kd value at micromolar level”. Besides, the Kd was around 1320 nM at K411L AsphyA mutant, 4760 nM at T418D AsphyA mutant, 870 nM at full-length AsphyA and 720 nM in test [1].

As a reminder, the Kd is the concentration at which binding is half-saturated.
